Experimental data published in PMC7734798 (ACS Medicinal Chemistry Letters, 2020).

Tested on: TREM2
Experiment: Immunomodulation assay: TREM2 (M2 marker) expression in LPS-treated N9 microglial cells (Western blot)
Assay type: cell-based, mouse
Conditions: 100 ng/mL LPS, 6 h pretreatment + 24 h
Description: Microglia, essential regulators of neuroinflammatory processes, can be polarized to two distinct activation states: M1 and M2. M1 microglia have proinflammatory, neurotoxic properties and are modeled in vitro through lipopolysaccharides (LPS) activation. Alternatively, M2 microglia are involved in anti-inflammatory processes, contributing to trophic support of neurons and neuroprotective functions. A marked microglial activation with high expression levels of proinflammatory genes is found in MS lesions.[23] Conversely, the neuroprotective effects of the MS drug glatiramer are mediated by activated M2 microglia.[24] To this end, we evaluated whether 1 and 2 modulate microglial shift from an M1 neurotoxic phenotype to an M2 neuroprotective one. […] After pretreatment for 6 h and administration for a further 24 h, the microglial phenotype was evaluated through Western blot analysis of the M1-iNOS (inducible Nitric Oxide Synthase) and M2-TREM2 (Triggering Receptor Expressed on Myeloid cells 2) markers (Figure 6). We also assessed nitrite production, due to iNOS induction, in the incubation media. […]
Nitrite accumulation in cell media was assayed by the Griess reaction. […] Absorbance was read at 540 nm using a plate reader after 15 min of incubation at room […]
After 24 hours, the viability was evaluated through the MTT assay. […]

Row | Structure (SMILES) | expression of TREM2 (M2 marker)
1 | CC/C=C\C/C=C\C/C=C\CCCCCCCC(=O)NCCOC(=O)C(CCC)CCC [compound 2] | unchanged expression
2 | CC/C=C\C/C=C\C/C=C\CCCCCCCC(=O)NCCNC(=O)C(CCC)CCC [compound 1] | unchanged expression
